Reference: the supplement of paper PMC10307832

Columns and labels:
Experiment in all cases: relative viability (nuclei count vs DMSO), 5 days (fraction); higher = more cells survive
Vorinostat = compound: O=C(CCCCCCC(=O)Nc1ccccc1)NO [Vorinostat]
Procedure, shortened: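 Acceptance criteria were a control CV below 25% and at least one doubling per plate. Lung cancer cell lines in 1536-well plates got five library-drug doses (not always all listed) √10 apart by pinning and were left 5 days with no medium change. Viability divides treated-well nuclei by vehicle-well nuclei and is the median across plates. Nuclei were counted by MetaXpress from 4× Hoechst images.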

Vorinostat + Lapatinib = compound: O=C(CCCCCCC(=O)Nc1ccccc1)NO [Vorinostat] + CS(=O)(=O)CCNCc1ccc(-c2ccc3ncnc(Nc4ccc(OCc5cccc(F)c5)c(Cl)c4)c3c2)o1 [Lapatinib] (partner 2 µM)
Procedure, shortened: (§1)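 Medians of duplicate plates are given as relative viability. That measure is the nuclei count in treated wells divided by the count in vehicle wells. Counts were taken on 4× images of lung cancer cell lines in 1536-well plates, 5 days after pin-tool dosing the day after seeding with one drug alone or a fixed anchor-drug dose plus five library-drug doses (not always all listed) in √10 steps.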

Vorinostat + Linsitinib = compound: O=C(CCCCCCC(=O)Nc1ccccc1)NO [Vorinostat] + C[C@]1(O)C[C@@H](c2nc(-c3ccc4ccc(-c5ccccc5)nc4c3)c3c(N)nccn32)C1 [Linsitinib] (partner 1 µM)
Procedure, shortened: as §1

Vorinostat + Alpelisib = compound: O=C(CCCCCCC(=O)Nc1ccccc1)NO [Vorinostat] + Cc1nc(NC(=O)N2CCC[C@H]2C(N)=O)sc1-c1ccnc(C(C)(C)C(F)(F)F)c1 [Alpelisib] (partner 2 µM)
Procedure, shortened: as §1

Vorinostat + Pictilisib = compound: O=C(CCCCCCC(=O)Nc1ccccc1)NO [Vorinostat] + CS(=O)(=O)N1CCN(Cc2cc3nc(-c4cccc5[nH]ncc45)nc(N4CCOCC4)c3s2)CC1 [Pictilisib] (partner 1 µM)
Procedure, shortened: as §1

Vorinostat + Bortezomib = compound: O=C(CCCCCCC(=O)Nc1ccccc1)NO [Vorinostat] + CC(C)C[C@H](NC(=O)[C@H](Cc1ccccc1)NC(=O)c1cnccn1)B(O)O [Bortezomib] (partner 0.002 µM)
Procedure, shortened: as §1

Vorinostat + Navitoclax = compound: O=C(CCCCCCC(=O)Nc1ccccc1)NO [Vorinostat] + CC1(C)CCC(c2ccc(Cl)cc2)=C(CN2CCN(c3ccc(C(=O)NS(=O)(=O)c4ccc(N[C@H](CCN5CCOCC5)CSc5ccccc5)c(S(=O)(=O)C(F)(F)F)c4)cc3)CC2)C1 [Navitoclax] (partner 0.5 µM)
Procedure, shortened: as §1

Vorinostat + Olaparib = compound: O=C(CCCCCCC(=O)Nc1ccccc1)NO [Vorinostat] + O=C(c1cc(Cc2n[nH]c(=O)c3ccccc23)ccc1F)N1CCN(C(=O)C2CC2)CC1 [Olaparib] (partner 8 µM)
Procedure, shortened: as §1

Vorinostat + Foretinib = compound: O=C(CCCCCCC(=O)Nc1ccccc1)NO [Vorinostat] + COc1cc2c(Oc3ccc(NC(=O)C4(C(=O)Nc5ccc(F)cc5)CC4)cc3F)ccnc2cc1OCCCN1CCOCC1 [Foretinib] (partner 0.25 µM)
Procedure, shortened: as §1

Vorinostat + Crizotinib = compound: O=C(CCCCCCC(=O)Nc1ccccc1)NO [Vorinostat] + C[C@@H](Oc1cc(-c2cnn(C3CCNCC3)c2)cnc1N)c1c(Cl)ccc(F)c1Cl [Crizotinib] (partner 1 µM)
Procedure, shortened: as §1

## NCI-H1299
Vorinostat; 0.253 µM
  relative viability: 1.06
Vorinostat; 0.8 µM
  relative viability: 0.979
Vorinostat; 2.53 µM
  relative viability: 0.786
Vorinostat; 8 µM
  relative viability: 0.36
Vorinostat + Lapatinib; first compound 0.253 µM
  relative viability: 0.979
Vorinostat + Lapatinib; first compound 0.8 µM
  relative viability: 0.87
Vorinostat + Lapatinib; first compound 2.53 µM
  relative viability: 0.736
Vorinostat + Lapatinib; first compound 8 µM
  relative viability: 0.466
Vorinostat + Linsitinib; first compound 0.253 µM
  relative viability: 1.15
Vorinostat + Linsitinib; first compound 0.8 µM
  relative viability: 0.923
Vorinostat + Linsitinib; first compound 2.53 µM
  relative viability: 0.51
Vorinostat + Linsitinib; first compound 8 µM
  relative viability: 0.265
Vorinostat + Alpelisib; first compound 0.253 µM
  relative viability: 1.15
Vorinostat + Alpelisib; first compound 0.8 µM
  relative viability: 1.05
Vorinostat + Alpelisib; first compound 2.53 µM
  relative viability: 0.789
Vorinostat + Alpelisib; first compound 8 µM
  relative viability: 0.454
Vorinostat + Pictilisib; first compound 0.253 µM
  relative viability: 1.1
Vorinostat + Pictilisib; first compound 0.8 µM
  relative viability: 0.677
Vorinostat + Pictilisib; first compound 2.53 µM
  relative viability: 0.221
Vorinostat + Pictilisib; first compound 8 µM
  relative viability: 0.075
Vorinostat + Bortezomib; first compound 0.253 µM
  relative viability: 1.07
Vorinostat + Bortezomib; first compound 0.8 µM
  relative viability: 1.03
Vorinostat + Bortezomib; first compound 2.53 µM
  relative viability: 0.826
Vorinostat + Bortezomib; first compound 8 µM
  relative viability: 0.343
Vorinostat + Navitoclax; first compound 0.253 µM
  relative viability: 1.07
Vorinostat + Navitoclax; first compound 0.8 µM
  relative viability: 1
Vorinostat + Navitoclax; first compound 2.53 µM
  relative viability: 0.767
Vorinostat + Navitoclax; first compound 8 µM
  relative viability: 0.444
Vorinostat + Olaparib; first compound 0.253 µM
  relative viability: 1
Vorinostat + Olaparib; first compound 0.8 µM
  relative viability: 0.909
Vorinostat + Olaparib; first compound 2.53 µM
  relative viability: 0.642
Vorinostat + Olaparib; first compound 8 µM
  relative viability: 0.329
Vorinostat + Foretinib; first compound 0.253 µM
  relative viability: 1.05
Vorinostat + Foretinib; first compound 0.8 µM
  relative viability: 1.06
Vorinostat + Foretinib; first compound 2.53 µM
  relative viability: 0.717
Vorinostat + Foretinib; first compound 8 µM
  relative viability: 0.277
Vorinostat + Crizotinib; first compound 0.253 µM
  relative viability: 0.992
Vorinostat + Crizotinib; first compound 0.8 µM
  relative viability: 0.812
Vorinostat + Crizotinib; first compound 2.53 µM
  relative viability: 0.554
Vorinostat + Crizotinib; first compound 8 µM
  relative viability: 0.291
